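96-well plates; 48 h exposure; 5 concentrations. Endpoints by linear interpolation between flanking doses. Not reached: highest tested concentration assigned. The concentration for 50% growth inhibition is given as GI50.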 Active and inactive are the calls of the source. Rule as the data show it: active = GI50 up to about 1.1 µM and inactive = higher.
What was measured:
Assay in all cases: DTP human tumour cell line panel, 48 h
[1] = test system: UACC-62
[2] = test system: HL-60
[3] = test system: KM12
[4] = test system: SR
[5] = test system: CAKI-1
[6] = test system: COLO 205
[7] = test system: HCC 2998
[8] = test system: UACC-257
[9] = test system: NCI-H522
[10] = test system: SNB-19
[11] = test system: EKVX
[12] = test system: CCRF-CEM
[13] = test system: HCT-116
[14] = test system: SK-MEL-5
[15] = test system: OVCAR-4
[16] = test system: NCI-H460
[17] = test system: TK-10
[18] = test system: A498

SMILES | GI50 [1] | GI50 [2] | GI50 [3] | GI50 [4] | GI50 [5] | GI50 [6] | GI50 [7] | GI50 [8] | GI50 [9] | GI50 [10] | GI50 [11] | GI50 [12] | GI50 [13] | GI50 [14] | GI50 [15] | GI50 [16] | GI50 [17] | GI50 [18]
CCOC(=O)/C(=C\c1ccc[nH]1)C(=O)c1ccccc1 | 67.6 µM (inactive) | 23.3 µM (inactive) | 65.9 µM (inactive) | 25.8 µM (inactive) | > 100 µM (inactive) | > 100 µM (inactive) | > 100 µM (inactive) | > 100 µM (inactive) | > 100 µM (inactive) | > 100 µM (inactive) | > 100 µM (inactive) | 58.3 µM (inactive) | > 100 µM (inactive) | > 100 µM (inactive) | > 100 µM (inactive) | > 100 µM (inactive) | > 100 µM (inactive) | –
Cn1c(=O)oc2cc(C3CCC(=O)N3Cc3ccc(Cl)cc3)ccc21 (centres undefined) | > 100 µM (inactive) | > 100 µM (inactive) | > 100 µM (inactive) | > 100 µM (inactive) | > 100 µM (inactive) | > 100 µM (inactive) | > 100 µM (inactive) | > 100 µM (inactive) | > 100 µM (inactive) | > 100 µM (inactive) | > 100 µM (inactive) | > 100 µM (inactive) | > 100 µM (inactive) | > 100 µM (inactive) | > 100 µM (inactive) | > 100 µM (inactive) | > 100 µM (inactive) | –
C[N+](C)(C)CC1CCC/C1=N\OC(=O)c1ccccc1 (centres undefined) | > 100 µM (inactive) | > 100 µM (inactive) | > 100 µM (inactive) | > 100 µM (inactive) | – | > 100 µM (inactive) | – | > 100 µM (inactive) | > 100 µM (inactive) | > 100 µM (inactive) | > 100 µM (inactive) | > 100 µM (inactive) | > 100 µM (inactive) | > 100 µM (inactive) | > 100 µM (inactive) | – | – | > 100 µM (inactive)
Cc1ccc(C2=NN(C)COC2C(F)(F)F)cc1 (centres undefined) | 18.6 µM (inactive) | > 100 µM (inactive) | > 100 µM (inactive) | > 100 µM (inactive) | > 100 µM (inactive) | > 100 µM (inactive) | > 100 µM (inactive) | > 100 µM (inactive) | > 100 µM (inactive) | > 100 µM (inactive) | > 100 µM (inactive) | > 100 µM (inactive) | > 100 µM (inactive) | > 100 µM (inactive) | > 100 µM (inactive) | > 100 µM (inactive) | – | –
Cc1cccc(NC(=O)Cc2nc3ccccc3s2)c1C | > 100 µM (inactive) | > 100 µM (inactive) | > 100 µM (inactive) | – | > 100 µM (inactive) | > 100 µM (inactive) | > 100 µM (inactive) | > 100 µM (inactive) | > 100 µM (inactive) | > 100 µM (inactive) | > 100 µM (inactive) | > 100 µM (inactive) | – | > 100 µM (inactive) | > 100 µM (inactive) | > 100 µM (inactive) | > 100 µM (inactive) | 83.8 µM (inactive)
COc1ccc(CC2(Cc3ccc(OC)cc3)CCOC2=O)cc1 | > 100 µM (inactive) | > 100 µM (inactive) | > 100 µM (inactive) | > 100 µM (inactive) | 67 µM (inactive) | > 100 µM (inactive) | – | > 100 µM (inactive) | 17.7 µM (inactive) | > 100 µM (inactive) | 44.2 µM (inactive) | > 100 µM (inactive) | > 100 µM (inactive) | – | > 100 µM (inactive) | > 100 µM (inactive) | > 100 µM (inactive) | > 100 µM (inactive)
Cc1cc(Cl)ccc1NC(=O)CCCC(=O)C1CCCC1=O (centres undefined) | > 100 µM (inactive) | > 100 µM (inactive) | > 100 µM (inactive) | – | > 100 µM (inactive) | > 100 µM (inactive) | > 100 µM (inactive) | > 100 µM (inactive) | > 100 µM (inactive) | > 100 µM (inactive) | > 100 µM (inactive) | > 100 µM (inactive) | > 100 µM (inactive) | > 100 µM (inactive) | > 100 µM (inactive) | > 100 µM (inactive) | > 100 µM (inactive) | > 100 µM (inactive)
COC(=O)CCCN(C)c1nc(N)n[nH]1 | > 100 µM (inactive) | > 100 µM (inactive) | > 100 µM (inactive) | > 100 µM (inactive) | – | > 100 µM (inactive) | > 100 µM (inactive) | > 100 µM (inactive) | – | > 100 µM (inactive) | > 100 µM (inactive) | > 100 µM (inactive) | > 100 µM (inactive) | > 100 µM (inactive) | > 100 µM (inactive) | > 100 µM (inactive) | > 100 µM (inactive) | –
O=C(CCCCCCCCCCc1ccccc1)c1c(O)cccc1O | 20.7 µM (inactive) | 25.1 µM (inactive) | 18.4 µM (inactive) | 25.2 µM (inactive) | 29.5 µM (inactive) | 23.8 µM (inactive) | 19.4 µM (inactive) | 20.2 µM (inactive) | 21.4 µM (inactive) | 20.2 µM (inactive) | 21.3 µM (inactive) | 31.6 µM (inactive) | 22.7 µM (inactive) | 16.1 µM (inactive) | 25.3 µM (inactive) | 20.8 µM (inactive) | 39 µM (inactive) | –
Cc1cc2c(C)nn(Cc3ccccc3)c2c(C(N)=O)c1C | > 100 µM (inactive) | – | > 100 µM (inactive) | – | – | > 100 µM (inactive) | > 100 µM (inactive) | > 100 µM (inactive) | 99.1 µM (inactive) | > 100 µM (inactive) | > 100 µM (inactive) | > 100 µM (inactive) | > 100 µM (inactive) | > 100 µM (inactive) | > 100 µM (inactive) | > 100 µM (inactive) | > 100 µM (inactive) | > 100 µM (inactive)
CC12Oc3ccc4ccccc4c3C1c1c(ccc3ccccc13)O2 (centres undefined) | > 100 µM (inactive) | – | > 100 µM (inactive) | > 100 µM (inactive) | > 100 µM (inactive) | > 100 µM (inactive) | – | – | > 100 µM (inactive) | > 100 µM (inactive) | > 100 µM (inactive) | > 100 µM (inactive) | > 100 µM (inactive) | > 100 µM (inactive) | 35.9 µM (inactive) | > 100 µM (inactive) | > 100 µM (inactive) | –
O=C1c2c(n(Cc3ccccc3)c(=O)n2Cc2ccccc2)C(=O)N1Cc1ccccc1 | 41.4 µM (inactive) | 0.782 µM (active) | 55.5 µM (inactive) | – | 65.8 µM (inactive) | > 100 µM (inactive) | 61.4 µM (inactive) | 67.6 µM (inactive) | 56.1 µM (inactive) | 89.1 µM (inactive) | 66.8 µM (inactive) | 9.2 µM (inactive) | 40.3 µM (inactive) | 50.5 µM (inactive) | 46.5 µM (inactive) | 72.4 µM (inactive) | > 100 µM (inactive) | 70 µM (inactive)
O=S(=O)(c1ccccc1)C1(C2(S(=O)(=O)c3ccccc3)CCN=N2)CCN=N1 (centres undefined) | – | > 100 µM (inactive) | > 100 µM (inactive) | > 100 µM (inactive) | > 100 µM (inactive) | > 100 µM (inactive) | > 100 µM (inactive) | > 100 µM (inactive) | > 100 µM (inactive) | > 100 µM (inactive) | > 100 µM (inactive) | > 100 µM (inactive) | > 100 µM (inactive) | – | > 100 µM (inactive) | > 100 µM (inactive) | > 100 µM (inactive) | –
C/C(=C1/N=C(c2cc([N+](=O)[O-])ccc2Cl)N(c2cccc(C)c2)C1=O)c1cc2ccccc2oc1=O | 21.8 µM (inactive) | 28.7 µM (inactive) | 64 µM (inactive) | 30.3 µM (inactive) | > 100 µM (inactive) | 45.3 µM (inactive) | > 100 µM (inactive) | 17.3 µM (inactive) | 13.6 µM (inactive) | 95.5 µM (inactive) | > 100 µM (inactive) | 23.3 µM (inactive) | 47.4 µM (inactive) | 14 µM (inactive) | – | 47.8 µM (inactive) | > 100 µM (inactive) | > 100 µM (inactive)
CCOC(=O)N1CCN(C=S)CC1 | > 100 µM (inactive) | > 100 µM (inactive) | > 100 µM (inactive) | > 100 µM (inactive) | – | > 100 µM (inactive) | > 100 µM (inactive) | > 100 µM (inactive) | > 100 µM (inactive) | > 100 µM (inactive) | > 100 µM (inactive) | > 100 µM (inactive) | > 100 µM (inactive) | > 100 µM (inactive) | – | > 100 µM (inactive) | > 100 µM (inactive) | > 100 µM (inactive)
CC(C)(C)c1cc(C(OCCl)(C(F)(F)F)C(F)(F)F)c2c(c1)C(C(F)(F)F)(C(F)(F)F)OC21c2ccccc2C(=O)c2ccccc21 | – | – | > 100 µM (inactive) | > 100 µM (inactive) | > 100 µM (inactive) | > 100 µM (inactive) | > 100 µM (inactive) | > 100 µM (inactive) | > 100 µM (inactive) | > 100 µM (inactive) | > 100 µM (inactive) | – | > 100 µM (inactive) | > 100 µM (inactive) | > 100 µM (inactive) | > 100 µM (inactive) | > 100 µM (inactive) | –
CCOC(=O)NC(=O)c1cn(CCN2CCN(c3ncnc4[nH]cnc34)CC2)c(=O)[nH]c1=O | > 100 µM (inactive) | > 100 µM (inactive) | > 100 µM (inactive) | > 100 µM (inactive) | – | > 100 µM (inactive) | > 100 µM (inactive) | > 100 µM (inactive) | > 100 µM (inactive) | > 100 µM (inactive) | > 100 µM (inactive) | > 100 µM (inactive) | > 100 µM (inactive) | > 100 µM (inactive) | – | > 100 µM (inactive) | > 100 µM (inactive) | > 100 µM (inactive)

Source: ChEMBL document CHEMBL1201862, “PubChem BioAssay data set” (2004)
